Values quoted from earlier work in patent publication US11559045B2, “Synergistic mixture for inducing hygienic behavior in honey bees, and related compositions and methods” (University of North Carolina at Greensboro, priority 2019, dated 2023).

Test system: honey bees
Conditions: previously shown (US 2018/0177160; Nazzi et al. 2004)

CCCCCCCCC/C=C\CCCCCCCCCCCCCCCCCCCCCC [Compound (I), (Z)-10-tritriacontene]
induction of hygienic behavior in honey bees: induce hygienic behavior

CCCCC/C=C\CCCCCCCC [Compound (IV), (Z)-6-pentadecene]
induction of hygienic behavior in honey bees: induce hygienic behavior
